{"source": "patent US8679478B2", "about": "“Methods of lysosomal storage disease therapy” (Duke University, priority 2010, dated 2014)", "assay_type_in_all_cases": "in vivo, mouse", "key": {"[1]": {"tested_on": "GAA-KO mice", "experiment": "Glycogen content in muscles, ERT plus clenbuterol or albuterol", "settings": "ERT plus albuterol 30 μg/ml drinking water", "description": "FIG. 8A-8C depicts increased GAA uptake and increased glycogen clearance in GAA-KO mice following clenbuterol treatment and ERT. […] GAA-KO mice were administered four weekly doses of rhGAA (20 mg/kg), and treated with clenbuterol (n=6) or untreated (n=5). […] Mean+/−standard deviation are shown. Statistically significant differences indicated (*=p<0.05; **=p<0.01).\nGAA-KO mice were treated with weekly rhGAA (20 mg/kg): with medium clenbuterol, […] (n=6), with low clenbuterol, 1.3 mg/ml (n=6), with albuterol 30 mg/ml (n=4), or without drug treatment (n=3). Drugs were administered in the drinking water. Mean+/−s.d. shown. Statistically significant differences indicated (*=p<0.05; **=p<0.01).\n(§1) For in vivo analysis of AAV vectors, stocks were administered intravenously (via the retroorbital sinus) in 3 month-old and 15 month-old GAA-KO mice, and to 3 month-old tolerant GAA-KO and DKO mice. Clenbuterol (30 μg/ml) was administered to groups of 3 month-old vector-injected and mock-injected male GAA-KO mice in drinking water for 28 days. At the indicated time points post-injection, tissue samples were obtained and processed as described below. All animal procedures were done in accordance with Duke University Institutional Animal Care and Use Committee-approved guidelines. GAA activity and glycogen content were analyzed essentially as described (Sun et al., Mol. Ther., 2005, 11:889-898; Sun et al., Mol. Ther., 2005, 11: 57-65). Rotarod testing was performed essentially as described (Sun, B. D. et al. 2005). Western blotting of hGAA was performed essentially as described (Amalfitano et al., Proc. Natl. Acad. Sci. USA, 1999, 96: 8861-8866) using the hGAA monoclonal antibody (courtesy of Genzyme Corp., Framingham, Mass.) and the CI-MPR antibody (catalog number GTX28093; Gene Tex, Irvine, Calif.).\nThe efficacy from gene therapy was increased by β2 agonist stimulation from clenbuterol treatment, and this benefit might be expected to affect ERT in Pompe disease, as well. Therefore, groups of 3 month-old GAA-KO mice were treated with four weekly doses of rhGAA (20 mg/kg), with or without concurrent clenbuterol treatment."}, "[2]": {"tested_on": "immune tolerant GAA-KO mice", "experiment": "Glycogen content in tissues, ERT plus β2 agonist (Example 6)", "description": "(§2) Male GAA-KO mice were administered four weekly doses of 20 mg/kg body weight of rhGAA and sacrificed one week following the last injection. Groups of mice were treated with clenbuterol (n=6), albuterol (n=4) or untreated (n=6). Mice were euthanized for tissue analysis 5 weeks after initiation of ERT.\n(§3) Cerebral and cerebellar hemispheres were analyzed 5 weeks following the initiation of ERT. Groups of mice were treated with clenbuterol (n=6), albuterol (n=4) or untreated (n=6).\n(§4) Two β2 agonists were evaluated in combination with ERT, clenbuterol and albuterol. […] Groups of 3 month-old immune tolerant GAA-KO mice (Raben et al., Human Mol. Genet., 2001, 10:2039-2047) were treated with four weekly doses of rhGAA (20 mg/kg body weight), with or without concurrent β2 agonist treatment.\n(§5) Mice were sacrificed 7 days after the last injection. Selected tissues were collected for GAA enzyme activity and glycogen content analyses. All animal procedures were done in accordance with Duke University Institutional Animal Care and Use Committee-approved guidelines. GAA activity and glycogen content analyses, Rotarod testing, and Western blot detection of CI-MPR was performed essentially as described (Koeberl et al., Mol. Genet. Metab., 2011, 103:107-112. Wire hang testing was performed with a 0.5 cm mesh hardware cloth fixed to an 8 by 10 inch frame. Mice were placed on the wire mesh, which was slowly inverted 6 inches over a cage containing paper bedding. The latency, or time until the mouse fell into the cage, was recorded."}, "[3]": {"tested_on": "immune tolerant GAA-KO mice", "experiment": "Histopathology of brain, glycogen staining", "settings": "cerebellum; in comparison with ERT alone", "description": "Histopathology was performed to examine brain involvement, and glycogen accumulations were detected in the cerebellum with ERT alone. Albuterol and clenbuterol each reduced the glycogen staining in the cerebellum, in comparison with ERT alone."}, "[4]": {"tested_on": "immune tolerant GAA-KO mice", "experiment": "Rotarod testing, ERT plus β2 agonist (Example 6)", "settings": "one week later (than 4 weeks); albuterol 30 mg/l drinking water plus ERT v. ERT alone", "description": "GAA-KO mice were administered four weekly doses of rhGAA (20 mg/kg), and treated with medium dose clenbuterol (n=7), albuterol (n=4) or untreated (n=6 or 3). […] Mean+/−standard deviation are shown. P values indicate statistically significant differences (lines).\nTwo β2 agonists were evaluated in combination with ERT, clenbuterol and albuterol. The dose of clenbuterol was reduced 5-fold from the concentration used in Example 4, to 6 mg/l in drinking water, while albuterol was evaluated at the higher dose (30 mg/l in drinking water). Groups of 3 month-old immune tolerant GAA-KO mice (Raben et al., Human Mol. Genet., 2001, 10:2039-2047) were treated with four weekly doses of rhGAA (20 mg/kg body weight), with or without concurrent β2 agonist treatment.\nas §5, with “All animal procedures were done in accordance with Duke University Institutional Animal Care and Use Committee-approved guidelines.” left out"}, "[5]": {"tested_on": "immune tolerant GAA-KO mice", "experiment": "GAA activity in tissues, ERT plus β2 agonist (Example 6)", "description": "as §2, §3, §4, §5"}, "[6]": {"tested_on": "DKO mice", "experiment": "Glycogen clearance after rhGAA in DKO mice", "description": "(§6) CI-MPR-KO mice were generated using a muscle-specific promoter (muscle creatine kinase; CK) and the cre/loxP conditional knock out system essentially as described previously (Wylie et al., Am. J. Pathol., 2003, 162: 321-328). The muscle-specific CI-MPR-KO mice were crossed with GAA-KO mice to generate muscle specific DKO mice). This mouse colony was subsequently screened to be GAA−/−, M6PR flox/flox and MCK-Cre positive. These DKO mice and age matched Pompe mice were administered four weekly doses of 20 or 100 mg/kg rhGAA and sacrificed 3 days after the last injection. Selected tissues were collected for GAA enzyme activity levels, glycogen content depletion and Western blot analysis. Pompe and DKO mice injected with vehicle were used as controls.\nas §1\n(§7) To further understand the role of CI-MPR in recombinant human GAA (rhGAA) uptake and glycogen clearance specifically in Pompe disease, muscle-specific CI-MPR-KO mice were crossed with GAA-KO (Pompe disease) mice. […]"}, "[7]": {"tested_on": "CI-MPR-KO/GAA-KO (DKO) mice v. GAA-KO (Pompe disease) mice", "experiment": "GAA enzyme activity in tissues after rhGAA administration, DKO v. GAA-KO mice", "settings": "for GAA decrease in DKO v. GAA-KO (%): rhGAA four weekly doses, dose not given", "description": "as §6, §1\n(§8) To further understand the role of CI-MPR in recombinant human GAA (rhGAA) uptake and glycogen clearance specifically in Pompe disease, muscle-specific CI-MPR-KO mice were crossed with GAA-KO (Pompe disease) mice. The DKO mice were administered four weekly doses of 20 mg/kg and 100 mg/kg body weight of recombinant human rhGAA and sacrificed three days after the last injection to evaluate GAA enzyme levels and glycogen depletion in the target tissues. […]"}, "[8]": {"tested_on": "CI-MPR-KO/GAA-KO (DKO) mice v. GAA-KO (Pompe disease) mice", "experiment": "Glycogen content in tissues after rhGAA administration, DKO v. GAA-KO mice", "settings": "rhGAA four weekly doses, dose not given", "description": "as §6, §1, §8"}, "[9]": {"tested_on": "GAA-KO mice", "experiment": "Glycogen clearance after rhGAA in GAA-KO (Pompe) mice", "description": "as §6, §1, §7"}}, "data": [{"compound": "CC(C)(C)NCC(O)c1ccc(O)c(CO)c1", "note": "(stereo not drawn) [albuterol]", "values": [{"measurement": "glycogen content of the quadriceps", "setting": "[1]", "value": "trend toward decreasing"}, {"measurement": "Glycogen content", "setting": "[2]; cerebellum, β2 agonist plus ERT v. ERT alone", "value": "reduced significantly"}, {"measurement": "Glycogen content", "setting": "[2]; liver, albuterol plus ERT v. ERT alone", "value": "significantly reduced"}, {"measurement": "Glycogen content", "setting": "[2]; quadriceps, albuterol plus ERT v. ERT alone", "value": "significantly reduced"}, {"measurement": "glycogen staining (histopathology)", "setting": "[3]", "value": "reduced"}, {"measurement": "Rotarod latency", "setting": "[4]", "value": "increased latency"}, {"measurement": "GAA activity", "setting": "[5]; cerebellum, 5 weeks after initiation of ERT, clenbuterol p=0.08, albuterol p=0.09", "value": "trend toward increased GAA activity"}, {"measurement": "GAA activity", "setting": "[5]; tibialis anterior only, albuterol plus ERT v. ERT alone", "value": "increased"}, {"measurement": "GAA activity in tissues with reduced glycogen content", "setting": "[5]; β2 agonist plus ERT v. ERT alone", "value": "unchanged"}]}, {"compound": "rhGAA: recombinant human acid α-glucosidase used for enzyme replacement therapy (ERT) in Pompe disease", "values": [{"measurement": "glycogen clearance", "setting": "[6]; DKO mouse heart, rhGAA 100 mg/kg", "value": 95, "unit": "%"}, {"measurement": "glycogen clearance", "setting": "[6]; heart of DKO mice, rhGAA 20 mg/kg", "value": 7, "unit": "%"}, {"measurement": "glycogen depletion", "setting": "[6]; quadriceps of DKO mice, rhGAA 20 mg/kg", "value": 8, "unit": "%"}, {"measurement": "GAA decrease in DKO v. GAA-KO (%)", "setting": "[7]; Diaphragm", "value": 2, "unit": "%"}, {"measurement": "GAA decrease in DKO v. GAA-KO (%)", "setting": "[7]; Gastrocnemius", "value": 72, "unit": "%"}, {"measurement": "GAA decrease in DKO v. GAA-KO (%)", "setting": "[7]; Heart", "value": 47, "unit": "%"}, {"measurement": "GAA decrease in DKO v. GAA-KO (%)", "setting": "[7]; Quadriceps", "value": 79, "unit": "%"}, {"measurement": "GAA decrease in DKO v. GAA-KO (%)", "setting": "[7]; Triceps", "value": 76, "unit": "%"}, {"measurement": "reduced rhGAA uptake in DKO mice as compared with Pompe mice", "setting": "[7]; heart, 100 mg/kg rhGAA", "value": 50, "unit": "%"}, {"measurement": "rhGAA uptake (enzyme activity) in DKO v. GAA-KO mice", "setting": "[7]; skeletal tissues (quadriceps, triceps, gastrocnemius), 20 and 100 mg/kg", "value": "significantly decreased uptake"}, {"measurement": "Glycogen increase in DKO v. GAA-KO (%)", "setting": "[8]; Diaphragm", "value": 192, "unit": "%"}, {"measurement": "Glycogen increase in DKO v. GAA-KO (%)", "setting": "[8]; Gastrocnemius", "value": 340, "unit": "%"}, {"measurement": "Glycogen increase in DKO v. GAA-KO (%)", "setting": "[8]; Heart", "value": 1600, "unit": "%"}, {"measurement": "Glycogen increase in DKO v. GAA-KO (%)", "setting": "[8]; Quadriceps", "value": 300, "unit": "%"}, {"measurement": "Glycogen increase in DKO v. GAA-KO (%)", "setting": "[8]; Triceps", "value": 425, "unit": "%"}, {"measurement": "glycogen clearance", "setting": "[9]; GAA-KO mouse heart, rhGAA 100 mg/kg", "value": 99, "unit": "%"}, {"measurement": "glycogen clearance", "setting": "[9]; heart of Pompe mice, rhGAA 20 mg/kg", "value": 77, "unit": "%"}, {"measurement": "glycogen depletion", "setting": "[9]; quadriceps of GAA-KO mice, rhGAA 20 mg/kg", "value": 55, "unit": "%"}]}]}
